Test results published in patent US20120128654A1, “Allantoin Administration for the Treatment of Neurodegenerative Disease and Neurotrauma” (UNIVERSITY OF CINCINNATI, priority 2009, published 2012).

Experiment: Plasma purine levels following subcutaneous purine and KO pellet administration
Type: in vivo, Sprague Dawley rats
Details: rats, four days following pellet implantation; for plasma allantoin levels: matrix-driven s.c. pellets, vs control
Text: Continuous s.c. delivery of INO, KO and ALL was achieved by implanting matrix-driven pellets into the s.c. space. Animals were anesthetized with isofluorane and prepared for surgery using sterile procedures. A small incision was made posterior to the scapula and the pellet was placed in the subscapular space contralateral to the incision. This placement technique prevents migration of the pellet towards the incision, thereby reducing the incidents of rejection. Finally, the incision was closed using aseptic procedures. To determine the roles of UA and allantoin in inosine-mediated neuroprotection, animals were treated with the urate oxidase inhibitor KO. This approach has been widely used to prevent the enzymatic metabolism of UA to allantoin in other rodent models of disease.
For HPLC analysis of plasma inosine, hypoxanthine, xanthine and UA, an antioxidant solution was added to an equal volume of plasma and samples were centrifuged at 14,000 g for 20 minutes at 4° C. The supernatant was collected for HPLC analysis. Samples were separated on a Hypersil ODS column (Thermo-Fisher Scientific, Waltham, Mass.). Compounds were detected using a Photodiode Array Detector attached to a Waters 2695 Solvent Delivery System under the following conditions: the mobile phase consisted of 0.5% KH2PO4 at a pH of 4.6. Unknown samples were quantified against a 6-point standard curve with a minimum r^2 of 0.97. Quality control samples were interspersed with each run to ensure HPLC calibration. Data are expressed in μg/ml.
For plasma analysis of allantoin venous blood was obtained from the right ventricle (rat) and collected from repeated blood draws (African green monkey). Blood was immediately centrifuged at 10,500 rpms (this needs to be in G) for 5 minutes. Supernatant was then removed and analyzed for allantoin. Enzymatic detection of allantoin was performed as previously described with the exception of reaction volumes being adjusted to accommodate the use of a 96 well microtiter plate (Muratsubaki et al., Enzymatic assay of allantoin in serum using allantoinase and allantoate amidohydrolase, Anal. Biochem. 359:161-166 (2006)). […] Following a 15 minute incubation, absorbance was read on a spectrometer at 340 nm. […] Following a 10 minute incubation absorbance was once again measured at 340 nm. The final absorbance was subtracted from the absorbance following the addition of allantoinase. […]
To determine the impact of peripheral administration of purines on plasma purine levels, animals were divided into 5 groups INO (n=12), INO/KO (n=12), ALL (n=12), KO (n=12), and sham pellet implantation. […] Plasma ALL levels were determined enzymatically.

In the case of `NC(=O)NC1NC(=O)NC1=O` (stereo not shown) [allantoin], the plasma allantoin levels is reported as “increase in plasma allantoin similar to what was seen in the inosine only group” and the plasma allantoin levels (listed as Allantoin) is reported as “significantly increased”.

For `OC[C@H]1O[C@@H](n2cnc3c(O)ncnc32)[C@H](O)[C@@H]1O` [inosine], the plasma allantoin levels was “significantly increased” and the “plasma levels of any other purines” value (s.c. pellets) was “without affecting”.
